Reference: PubChem BioAssay AID624344 (Sanford-Burnham Center for Chemical Genomics, 2012)
Calls of active or inactive are those of the source. No rule for the calls is given here.

Tests used:
[1] = tested on: Cytotoxicity; assay: NFkB reporter suppression in cystic fibrosis bronchial cells – cell-based, uHTS hits, panel, cytotoxicity readout, dose response (AID 624344); conditions: CF bronchial epithelial cells, mean of runs
[2] = as above; conditions: CF bronchial epithelial cells, PAF-induced NFkB reporter inhibition; with PAF, mean of runs

Structure (SMILES)	IC50 [1]	IC50 [2]
C[C@H](CO)N1C[C@H](C)[C@@H](CN(C)C(=O)Nc2ccc3c(c2)OCO3)Oc2c(NC(=O)Nc3ccc(C(F)(F)F)cc3)cccc2C1=O	5.77 µM	3.05 µM
COc1ccc(CNc2ncnc3ccccc23)cc1	59.5 µM (inactive)	15.3 µM
CCOC(=O)c1c(C)[nH]c(C(=O)N/N=C/c2ccc(Br)cc2)c1C	45.9 µM	14.6 µM
CCc1nc(Cl)c(C#N)c2c1CCCC2	45.4 µM	2.87 µM
Cc1ccc2nc(C(F)(F)F)c(C#N)c(N)c2c1	9.13 µM	3.26 µM
O=C(c1cc([N+](=O)[O-])ccc1N1CCOCC1)N1CCN(c2ccccc2)CC1	> 79 µM (inactive)	inactive
CCCNC(=O)COC(=O)c1ccccc1C(=O)c1ccc(Cl)c([N+](=O)[O-])c1	7.71 µM	1.8 µM
C=CCN1c2ccccc2[C@]23C[C@@H](C(=O)OC)N(C(=O)c4ccc(Br)cc4)C2=NC(C(=O)OC)=C(C(=O)OC)[C@H]13	12.2 µM	9.35 µM
COc1nc(N)c(C#N)c(-c2ccc(N(C)CCC#N)cc2)c1C#N	> 79 µM (inactive)	3.31 µM
O=S(=O)(Nc1ccc(Cl)cc1NS(=O)(=O)c1ccccc1)c1ccccc1	40.3 µM	10 µM
COc1ccc(NC(=O)Nc2nnc(-c3ccncc3)s2)cc1	64.7 µM (inactive)	5.6 µM
Cc1ccccc1C(=O)N1CCN(c2ccc(NC(=O)CSc3ccc(Cl)cc3)cc2)CC1	> 79 µM (inactive)	0.879 µM
O=C(Nc1ccccc1)c1cc2ccccc2c(=O)s1	> 79 µM (inactive)	5.4 µM
COc1ccccc1-c1cc(NC=O)c2ncc(-c3ccc(F)cc3)n2c1	46.1 µM	4.08 µM
C[C@@H](NC(=O)c1coc(=O)c(Br)c1)c1ccccc1	4.95 µM	4.1 µM
COc1cccc(Nc2ncnc3ccc(Br)cc23)c1	9.61 µM	1.08 µM
O=S(=O)(c1ccc(Br)cc1)c1cnc2ccccc2n1	7.65 µM	6.57 µM
Cc1ccc(CNc2ncnc3ccc(-c4ccc(CO)o4)cc23)o1	3.77 µM	0.898 µM
COc1ccccc1/C=C/C(=O)c1c2c(c(C)[nH]c1=O)CCCC2	41.6 µM	2.94 µM
Cc1cccc(NC(=O)c2nc(S(=O)(=O)Cc3ccccc3)ncc2Cl)c1	3.39 µM	2.51 µM
CCCc1nc(Cl)c(C#N)c2c1CCCC2	73 µM (inactive)	4.3 µM
C[C@]12CCC(O)CC1CCC1C2CC[C@]2(C)C(c3cc(C(F)(F)F)n[nH]3)CCC12 (stereo not given in full)	5.25 µM	1.92 µM
COc1cc(C2c3cc4c(cc3CC3COC(=O)C32)OCO4)cc(OC)c1O (stereo not given)	> 79 µM (inactive)	> 79 µM (inactive)
CCOC(=O)Oc1c(OC)cc(C(=O)O[C@@H]2C[C@@H]3CN4CCc5c([nH]c6cc(OC)ccc56)[C@H]4C[C@@H]3[C@H](C(=O)OC)[C@H]2OC)cc1OC	58.8 µM (inactive)	4.91 µM
CCOC(=O)c1c(-c2ccc(C)cc2)csc1NC(=O)c1ccc(N2C(=O)CCC2=O)cc1	61 µM (inactive)	inactive
CCCCCCCCCCCCCCC(O)C[N+](C)(CCO)CCO (stereo not given)	5.47 µM	4.61 µM
COc1cccc(-c2ccc3ncnc(NCc4cc(C)cs4)c3c2)c1	26.9 µM	3.86 µM

Structure (SMILES)	IC50 [1]	IC50 [2]
CN(C)CCCN(C(=O)CCOc1ccccc1)c1nc2ccc(F)cc2s1	12.7 µM	2.53 µM
CC1(C)CC(=O)C=C(NC2=CC3OC(c4ccccc4)OCC3OC2=O)C1 (stereo not given)	16.9 µM	3.35 µM
COc1ccc2[nH]cc(C(=O)CCl)c2c1	1.94 µM	1.21 µM
Cc1cc2cc(CCNC(=O)C(=O)c3c[nH]c4ccccc34)c(=O)[nH]c2cc1C	24.3 µM	5.72 µM
CCN(CC)S(=O)(=O)c1ccc(NC(=O)Nc2cccc(C(F)(F)F)c2)cc1	12.2 µM	6.03 µM
COc1ccc(C2=Nn3c(nnc3-c3ccccc3OC)SC2)cc1OC1CCCC1	> 79 µM (inactive)	0.229 µM
CNc1ccc2ncc(-c3cccc(C(=O)N(C)C)c3)n2n1	53.7 µM (inactive)	0.169 µM
Cc1ccc(C(=O)Nc2cccc(C(F)(F)F)c2)cc1NC(=O)c1cnnc2ccccc12	22.6 µM	6.43 µM
COc1ccc(OC)c(-c2nnc3n2N=C(c2ccc(OC)c(OC4CCCC4)c2)CS3)c1	> 79 µM (inactive)	6.47 µM
CCOC(=O)C1=C(CC)Nc2ccccc2N=C1NC(=O)Nc1ccc(Cl)c(Cl)c1	6.06 µM	2.74 µM
O=C1Cc2c([nH]c3ccc(Br)cc23)-c2ccccc2N1	16.4 µM	3.75 µM
COc1ccc(-c2cnc3c(NC=O)cc(-c4ccc(C(=O)N5CCOCC5)cc4)cn23)cc1OC	14.7 µM	2.94 µM
Cc1cc(C)c(O)c(CN(C)Cc2cc(Cl)cc(Cl)c2O)c1	9.57 µM	4.39 µM
Cc1nc(N2CCC(C(N)=O)CC2)c2c(-c3cccs3)csc2n1	33.5 µM	3.23 µM
COc1ccc(-n2cc(-c3ccccc3)c3c(N4CC(C)OC(C)C4)ncnc32)cc1 (stereo not given)	3.56 µM	4.95 µM
COc1ccccc1-n1nnnc1S(=O)(=O)Cc1ccc(Cl)cc1	2.44 µM	1.28 µM
CCOc1ccc(-n2c(C)c(C(C)=O)c3cc(OC(C)=O)ccc32)cc1	44.5 µM	0.925 µM
O=[N+]([O-])c1ccc(NC(=S)NCCc2ccc(F)cc2)cc1	4.52 µM	4.58 µM
Cc1ccnc(NC(=O)CCCOc2cc(=O)n(C)c3ccccc23)c1	62.3 µM (inactive)	11.2 µM
COc1ccccc1NS(=O)(=O)c1ccc(-c2cnc(C3CC3)o2)cc1	> 79 µM (inactive)	16.7 µM
NC(=O)c1sc2nc3c(c(-c4ccccc4)c2c1N)CCC3	60.1 µM (inactive)	1.17 µM
Oc1ccc(CCNc2ncnc3ccc(Cl)cc23)cc1	40.6 µM	0.831 µM
COc1ccc(-c2cc(=O)oc3cc(OC(=O)C4CCCCC4)ccc23)cc1	> 79 µM (inactive)	2.37 µM
O=C(NCc1ccco1)c1nc2c(nnn2Cc2ccccc2Cl)c(=O)[nH]1	5.1 µM	1.46 µM
COc1cc(C2c3cc4c(cc3C(O)C3COC(=O)C23)OCO4)cc(OC)c1OC (stereo not given)	> 79 µM (inactive)	> 79 µM (inactive)
COc1ccc2c(c1OC)C(=O)OC2Nc1nc(-c2ccccc2)cs1 (stereo not given)	32.7 µM	0.66 µM
C=CC[C@@H](CC(=O)N(CCO)Cc1ccccc1)C(=O)NC[C@H](OC(=O)[C@@H](CC=C)Cc1ccc(F)cc1)c1ccccc1	4.23 µM	4.05 µM

Structure (SMILES)	IC50 [1]	IC50 [2]
COc1ccc(-n2nc(C(=O)NCC(=O)Nc3cc(OC)c(OC)c(OC)c3)c3ccccc3c2=O)cc1Cl	23.1 µM	1.61 µM
Cc1ccc(-c2cc(C(=O)N/N=C/c3c(C)nn(-c4ccccc4)c3C)[nH]n2)cc1	> 79 µM (inactive)	inactive
O=Nc1c(O)n(Cc2c(Cl)cccc2Cl)c2ccccc12	49.2 µM	5.45 µM
C=C(C)[C@@H]1CC[C@]2(C(=O)O)CC[C@]3(C)[C@H](CC[C@@H]4[C@@]5(C)CC[C@H](O)C(C)(C)[C@@H]5CC[C@]43C)[C@@H]12	42.2 µM	inactive
Nc1ncnc(NCc2ccc(F)cc2)c1[N+](=O)[O-]	> 79 µM (inactive)	3.33 µM
O=C(/C=C/c1cccc([N+](=O)[O-])c1)n1cnc2ccccc21	11.2 µM	1.99 µM
COc1ccc(-c2csc3ncnc(NCCN4CCOCC4)c23)cc1	47 µM	3.79 µM
COc1ccc(OC)c(Nc2ncnc3ccc(Br)cc23)c1	13.8 µM	4.6 µM
COc1ccc2c(=O)cc(-c3ccncc3)oc2c1OC	13.6 µM	3.97 µM
CCOc1cc2c(cc1O)C(=NOC)CC1C2CCC2(C)C(O)CCC12 (stereo not given)	> 79 µM (inactive)	7.69 µM
COc1ccc(C(C(=O)NCC2CCCO2)N(Cc2cccs2)C(=O)c2snc(C(N)=O)c2N)cc1 (stereo not given)	44.2 µM	3.11 µM
Cc1ccc(CNc2ncnc3ccc(-c4ccoc4C)cc23)o1	14.8 µM	0.381 µM
CCC(Oc1ccccc1)C(=O)Nc1ncc([N+](=O)[O-])s1 (stereo not given)	31 µM	9.05 µM
O=C(CSc1nc(C2CC2)nc2ccccc12)Nc1cccc(O)c1	42.8 µM	2.58 µM
O=C(COC(=O)c1ccc2[nH]c3c(c2c1)CCCC3)Nc1ccccc1Cl	36.6 µM	inactive
COCCNc1nc(Oc2cncc(Cl)c2)c2sccc2n1	29.1 µM	2.9 µM
Cc1cccc(C)c1NS(=O)(=O)c1ccc(-c2cnc(C3CC3)o2)cc1	35 µM	11.8 µM
CCn1c(Oc2ccccc2F)nc2c1c(=O)n(C)c(=O)n2C	> 79 µM (inactive)	3.57 µM
CC(C)C[C@@H](CN1CCCC1CN1C(=S)NC[C@@H]1Cc1ccc(O)cc1)N1C[C@H](Cc2ccc(O)cc2)N(CCc2ccccc2)C1=S (stereo not given in full)	18.2 µM	10.9 µM
COc1cc2c(Cc3ccccc3)cncc2cc1O	36.8 µM	6.42 µM
CC(=O)Nc1ccc(NC(=O)COC(=O)c2c3c(nc4ccccc24)CCN(Cc2ccccc2)C3)cc1	4.16 µM	5.27 µM
Cc1nn(-c2ccccc2)c(Cl)c1C(=O)N1CCN(c2ncnc3c2cnn3-c2ccccc2)CC1	1.42 µM	3.18 µM
Cc1ccc(NC(=O)Nc2nnc(-c3ccncc3)s2)cc1C	9.39 µM	3.46 µM
c1csc(CNc2ncnc3ccc(-c4ccoc4)cc23)c1	7.68 µM	0.194 µM
C=C1C(=O)O[C@@H]2[C@H]3O[C@]3(C)CC/C=C(\C)CC[C@@H]12	18.1 µM	3.59 µM
C[C@@H]1CN([C@H](C)CO)C(=O)c2cc(NC(=O)Nc3ccc(C(F)(F)F)cc3)ccc2O[C@H]1CN(C)S(=O)(=O)c1cccs1	54.9 µM (inactive)	5.41 µM
